From patent US20150038527A1, “FUROPYRIDINE DERIVATIVES” (Merck Patent GmbH, priority 2012, published 2015)

Target: T1, SYK (Homo sapiens, UniProt P43405)
T1 construct: 2.5 nM SYK, 400 nM Biotin-Aha-Aha-KEDPDYEWPSAKK and 10 μM ATP
Test: SYK Flash Plate Assay (enzyme assay)
Format: biochemical
Procedure: The kinase assay is performed either as 384-well Flashplate assay (for e.g. Topcount measurement) or as 384-well Image-Flashplate assay (for LEADseeker measurement).
2.5 nM SYK, 400 nM Biotin-Aha-Aha-KEDPDYEWPSAKK and 10 μM ATP (spiked with 0.3 μCi 33P-ATP/well) are incubated in a total volume of 50 μl (60 mM Hepes, 10 mM MgCl2, 1.2 mM Dithiothreitol, 0.02% Brij35, 0.1% BSA, pH 7.5) with or without test compound for 1 hours at 30° C. The reaction is stopped with 25 μl 200 mM EDTA. After 30 Min at 30° C. the liquid is removed and each well washed thrice with 100 μl 0.9% sodium chloride solution. Non-specific reaction is determined in presence of 0.1 μM Staurosporine. Radioactivity is measured with Topcount (when using Flashplates) or with LEADseeker (when using Image-Flashplates) respectively. Results (e.g. IC50-values) are calculated with program tools provided by the IT-department (e.g. Symyx Assay Explorer, Genedata Screener).

| Structure (SMILES) | IC50 [nM] |
| --- | --- |
| Cc1ccc(S(N)(=O)=O)cc1-c1cc2nccc(-c3cccc(C(=O)N[C@@H]4CCCC[C@@H]4N)c3)c2o1 [Compound A50, N-((1R,2S)-2-amino-cyclohexyl)-3-[2-(2-methyl-5-sulfamoyl-phenyl)furo[3,2-b]pyridin-7-yl]-benzamide] | 300 to 3000 |
| COc1cc(-c2cc3nccc(-c4cc(C)cc(C(=O)NCCN)c4)c3o2)cc(OC)c1OC [Compound A56, N-(2-amino-ethyl)-3-methyl-5-[2-(3,4,5-trimethoxy-phenyl)-furo[3,2-b]pyridin-7-yl]-benzamide] | 300 to 3000 |
| Cc1cc2[nH]ncc2cc1-c1cc2nccc(-c3cccc(C(=O)N[C@@H]4CCCC[C@@H]4N)c3)c2o1 [Compound A45, N-((1R,2S)-2-amino-cyclohexyl)-3-[2-(6-methyl-1H-indazol-5-yl)-furo[3,2-b]pyridin-7-yl]-benzamide] | 300 to 3000 |
| CCc1ccc(OC)cc1-c1cc2nccc(-c3cccc(C(=O)N[C@@H]4CCCC[C@@H]4N)c3)c2o1 [Compound A42, N-((1R,2S)-2-amino-cyclohexyl)-3-[2-(2-ethyl-5-methoxy-phenyl)-furo[3,2-b]pyridin-7-yl]-benzamide] | 3000 to 50000 |
| COc1cc(-c2cc3nccc(-c4cccc(C(=O)NC(C)(C)CO)c4)c3o2)cc(OC)c1OC [Compound A40, N-(2-hydroxy-1,1-dimethyl-ethyl)-3-[2-(3,4,5-trimethoxy-phenyl)-furo[3,2-b]pyridin-7-yl]-benzamide] | 300 to 3000 |
| Cc1cc(OCCN)ccc1-c1cc2nccc(-c3cccc(C(=O)N[C@@H]4CCCC[C@@H]4N)c3)c2o1 [Compound A52, N-((1R,2S)-2-amino-cyclohexyl)-3-{2-[4-(2-amino-ethoxy)-2-methyl-phenyl]-furo[3,2-b]pyridin-7-yl}-benzamide] | 300 to 3000 |
| N[C@H]1CCCC[C@H]1NC(=O)c1cccc(-c2ccnc3cc(-c4cccc5c4OCO5)oc23)c1 [Compound A60, N-((1R,2S)-2-amino-cyclohexyl)-3-(2-benzo[1,3]dioxol-4-yl-furo[3,2-b]pyridin-7-yl)-benzamide] | 300 to 3000 |
| COc1ccc(OCCN)cc1-c1cc2nccc(-c3cccc(C(=O)N[C@@H]4CCCC[C@@H]4N)c3)c2o1 [Compound A51, N-((1R,2S)-2-amino-cyclohexyl)-3-{2-[5-(2-amino-ethoxy)-2-methoxy-phenyl]-furo[3,2-b]pyridin-7-yl}-benzamide] | 300 to 3000 |
| COc1cc(-c2cc3nccc(-c4cc(F)cc(C(=O)NCCN)c4)c3o2)cc(OC)c1OC [Compound A55, N-(2-amino-ethyl)-3-fluoro-5-[2-(3,4,5-trimethoxy-phenyl)-furo[3,2-b]pyridin-7-yl]-benzamide] | 100 to 300 |
| COc1ccc(CNCCN)cc1-c1ccnc2cc(-c3cc(OC)c(OC)c(OC)c3)oc12 [Compound A4, N1-{4-methoxy-3-[2-(3,4,5-trimethoxy-phenyl)-furo[3,2-b]pyridin-7-yl]-benzyl}-ethane-1,2-diamine] | 300 to 3000 |
| CCc1ccc(OC)c(-c2cc3nccc(-c4ccc5[nH]cnc5c4)c3o2)c1 [Compound A41, 7-(1H-benzoimidazol-5-yl)-2-(5-ethyl-2-methoxy-phenyl)-furo[3,2-b]pyridine] | 300 to 3000 |
| COc1cc(-c2cc3nccc(-c4cc(C)cc(C(=O)NCCCN)c4)c3o2)cc(OC)c1OC [Compound A57, N-(3-amino-propyl)-3-methyl-5-[2-(3,4,5-trimethoxy-phenyl)-furo[3,2-b]pyridin-7-yl]-benzamide] | 300 to 3000 |
| COc1cc(-c2cc3nccc(N4CCNCC4)c3o2)cc(OC)c1OC [Compound A53, 7-piperazin-1-yl-2-(3,4,5-trimethoxy-phenyl)-furo[3,2-b]pyridine] | 3000 to 50000 |
| COc1cc(-c2cc3nccc(-c4cccc(C(=O)N[C@H]5C[C@H](N)C5)c4)c3o2)cc(OC)c1OC [Compound A24, N-(3-amino-cyclobutyl)-3-[2-(3,4,5-trimethoxy-phenyl)-furo[3,2-b]pyridin-7-yl]-benzamide] | 300 to 3000 |
| COc1ccc(S(N)(=O)=O)cc1-c1cc2nccc(-c3c(OC)cccc3OC)c2o1 [Compound A78, 3-[7-(2,6-dimethoxy-phenyl)-furo[3,2-b]pyridin-2-yl]-4-methoxybenzenesulfonamide] | 300 to 3000 |
| COc1cc(-c2cc3nccc(-c4cccc(C(=O)N[C@H]5C[C@@H](N)C5)c4)c3o2)cc(OC)c1OC [Compound A27, N-(3-amino-cyclobutyl)-3-[2-(3,4,5-trimethoxy-phenyl)-furo[3,2-b]pyridin-7-yl]-benzamide] | 300 to 3000 |
| COc1cc(-c2cc3nccc(-c4cccc(C(=O)N[C@@H]5CCCC[C@H]5O)c4)c3o2)cc(OC)c1OC [Compound A19, N-((1R,2R)-2-hydroxy-cyclohexyl)-3-[2-(3,4,5-trimethoxy-phenyl)-furo[3,2-b]pyridin-7-yl]-benzamide] | 3000 to 50000 |
| COc1ccc(C(N)=O)cc1-c1cc2nccc(-c3cc(S(N)(=O)=O)ccc3OC)c2o1 [Compound A77, 4-methoxy-3-[7-(2-methoxy-5-sulfamoyl-phenyl)-furo[3,2-b]pyridin-2-yl]-benzamide] | 300 to 3000 |
| COc1ccc(C(N)=O)cc1-c1cc2nccc(-c3cc(C(N)=O)ccc3OC)c2o1 [Compound A31, 3-[2-(5-carbamoyl-2-methoxy-phenyl)furo[3,2-b]pyridin-7-yl]-4-methoxybenzamide] | 300 to 3000 |
| COCC(O)CNC(=O)c1ccc(OC)c(-c2cc3nccc(-c4c(OC)cccc4OC)c3o2)c1 (centres unmarked) [Compound A69, 3-[7-(2,6-dimethoxy-phenyl)-furo[3,2-b]pyridin-2-yl]-N-(2-hydroxy-3-methoxypropyl)-4-methoxy-benzamide] | 300 to 3000 |
| COc1cc(-c2cc3nccc(NC(=O)NC4CCCCC4N)c3o2)cc(OC)c1OC (centres unmarked) [Compound A75, 1-(2-amino-cyclohexyl)-3-[2-(3,4,5-trimethoxy-phenyl)-furo[3,2-b]pyridin-7-yl]-urea] | 3000 to 50000 |
| COc1ccc(C(N)=O)cc1-c1cc2nccc(-c3ccnc(NC4CCCCC4N)c3)c2o1 (centres unmarked) [Compound A81, 3-{7-[2-(2-amino-cyclohexylamino)-pyridin-4-yl]-furo[3,2-b]pyridin-2-yl}-4-methoxy-benzamide] | < 100 |
| COc1cc(-c2cc3nccc(-c4cccc(C(=O)N[C@@H]5CCC[C@@H]5O)c4)c3o2)cc(OC)c1OC [Compound A22, N-((1R,2S)-2-hydroxy-cyclopentyl)-3-[2-(3,4,5-trimethoxy-phenyl)-furo[3,2-b]pyridin-7-yl]-benzamide] | 3000 to 50000 |
| COc1ccc(C(=O)O)cc1-c1cc2nccc(-c3c(OC)cccc3OC)c2o1 [Compound A66, 3-[7-(2,6-dimethoxy-phenyl)-furo[3,2-b]pyridin-2-yl]-4-methoxy-benzoic acid] | 300 to 3000 |

Next, values leading:

| IC50 [nM] | Structure (SMILES) |
| --- | --- |
| < 100 | COc1ccc(S(N)(=O)=O)cc1-c1cc2nccc(-c3cc[nH]n3)c2o1 [Compound A82, 4-methoxy-3-[7-(1H-pyrazol-3-yl)-furo[3,2-b]pyridin-2-yl]-benzenesulfonamide] |
| < 100 | COc1ccc(-c2nnn[nH]2)cc1-c1cc2nccc(-c3c(OC)cccc3OC)c2o1 [Compound A84, 7-(2,6-dimethoxy-phenyl)-2-[2-methoxy-5-(1H-tetrazol-5-yl)-phenyl]-furo[3,2-b]pyridine] |
| 100 to 300 | COc1cc(-c2cc3nccc(-c4nnc(CCCN)[nH]4)c3o2)cc(OC)c1OC [Compound A108, 3-{5-[2-(3,4,5-trimethoxy-phenyl)-furo[3,2-b]pyridin-7-yl]-4H-[1,2,4]triazol-3-yl}-propylamine] |
| 100 to 300 | COc1ccc(C(N)=O)cc1-c1cc2nccc(-c3ccc(C(=O)NCCN)cc3OC)c2o1 [Compound A95, N-(2-aminoethyl)-4-[2-(5-carbamoyl-2-methoxy-phenyl)furo[3,2-b]pyridin-7-yl]-3-methoxy-benzamide] |
| < 100 | COc1ccc(-c2ncon2)cc1-c1cc2nccc(-c3c(OC)cccc3OC)c2o1 [Compound A85, 7-(2,6-dimethoxy-phenyl)-2-(2-methoxy-5-[1,2,4]oxadiazol-3-yl-phenyl)furo[3,2-b]pyridine] |
| 3000 to 50000 | COc1cc(-c2cc3nccc(N=[N+]=[N-])c3o2)cc(OC)c1OC [Compound A86, 7-azido-2-(3,4,5-trimethoxy-phenyl)-furo[3,2-b]pyridine] |
| < 100 | COc1ccc(-c2ncon2)cc1-c1cc2nccc(-c3cc[nH]n3)c2o1 [Compound A92, 2-(2-methoxy-5-[1,2,4]oxadiazol-3-yl-phenyl)-7-(1H-pyrazol-3-yl)-furo[3,2-b]pyridine] |
| 300 to 3000 | COc1cc(-c2cc3nccc(C(N)=O)c3o2)cc(OC)c1OC [Compound A98, 2-(3,4,5-trimethoxy-phenyl)-furo[3,2-b]pyridine-7-carboxylic acid amide] |
| 300 to 3000 | COc1ccc([C@@H](C)N)cc1-c1ccnc2cc(-c3cc(OC)c(OC)c(OC)c3)oc12 [Compound A100, (R)-1-{4-methoxy-3-[2-(3,4,5-trimethoxy-phenyl)-furo[3,2-b]pyridin-7-yl]-phenyl}-ethylamine] |
| < 100 | COc1ccc(C(N)=O)cc1-c1cc2nccc(-c3ccnc(NC[C@H]4CCCNC4)c3)c2o1 [Compound A90, 4-methoxy-3-(7-{2-[((S)-1-piperidin-3-ylmethyl)-amino]-pyridin-4-yl}-furo[3,2-b]pyridin-2-yl)-benzamide] |
| 300 to 3000 | COc1ccc([C@H](C)N)cc1-c1ccnc2cc(-c3cc(OC)c(OC)c(OC)c3)oc12 [Compound A101, (S)-1-{4-methoxy-3-[2-(3,4,5-trimethoxy-phenyl)-furo[3,2-b]pyridin-7-yl]-phenyl}-ethylamine] |
